# Reference: the supplement of paper PMC13380429
# Assays:
# Conditions in all cases: 72 h
# U2OS [1] = test: relative viability EC50 (midpoint between 100% and the lowest measured viability); higher = less toxic
# Vero E6 [2] = test: as above
# HepG2 [3] = test: as above
# Calu-3 [4] = test: as above
# Caco-2 [5] = test: as above
# U2OS [6] = test: cell viability relative to DMSO; higher = less toxic
# Vero E6 [7] = test: as above
# HepG2 [8] = test: as above
# Calu-3 [9] = test: as above
# Caco-2 [10] = test: as above
# U2OS [11] = test: drug sensitivity score (DSS) for viability; higher = more toxic; extreme values may be limits of the assay
# Vero E6 [12] = test: as above
# HepG2 [13] = test: as above
# Calu-3 [14] = test: as above
# Caco-2 [15] = test: as above
Structure (SMILES),relative viability EC50 (U2OS [1]),relative viability EC50 (Vero E6 [2]),relative viability EC50 (HepG2 [3]),relative viability EC50 (Calu-3 [4]),relative viability EC50 (Caco-2 [5]),cell viability (U2OS [6]; 1 nM),cell viability (U2OS [6]; 10 nM),cell viability (U2OS [6]; 100 nM),cell viability (U2OS [6]; 1000 nM),cell viability (U2OS [6]; 10000 nM),cell viability (Vero E6 [7]; 1 nM),cell viability (Vero E6 [7]; 10 nM),cell viability (Vero E6 [7]; 100 nM),cell viability (Vero E6 [7]; 1000 nM),cell viability (Vero E6 [7]; 10000 nM),cell viability (HepG2 [8]; 1 nM),cell viability (HepG2 [8]; 10 nM),cell viability (HepG2 [8]; 100 nM),cell viability (HepG2 [8]; 1000 nM),cell viability (HepG2 [8]; 10000 nM),cell viability (Calu-3 [9]; 1 nM),cell viability (Calu-3 [9]; 10 nM),cell viability (Calu-3 [9]; 100 nM),cell viability (Calu-3 [9]; 1000 nM),cell viability (Calu-3 [9]; 10000 nM),cell viability (Caco-2 [10]; 1 nM),cell viability (Caco-2 [10]; 10 nM),cell viability (Caco-2 [10]; 100 nM),cell viability (Caco-2 [10]; 1000 nM),cell viability (Caco-2 [10]; 10000 nM),drug sensitivity score (U2OS [11]),drug sensitivity score (Vero E6 [12]),drug sensitivity score (HepG2 [13]),drug sensitivity score (Calu-3 [14]),drug sensitivity score (Caco-2 [15])
C[C@@H]1CN(c2c(F)c(F)c3c(=O)c(C(=O)O)cn(C4CC4)c3c2F)C[C@H](C)N1 [orbifloxacin],> 10 µM,> 10 µM,> 10 µM,> 10 µM,> 10 µM,99.5%,97.5%,95.3%,97.6%,101%,105%,110%,101%,100%,94.5%,98.2%,110%,94.8%,100%,92.1%,113%,97.9%,112%,92.8%,107%,110%,105%,109%,103%,94.6%,0,0,0,0,0
CCn1cc(C(=O)O)c(=O)c2cc3c(cc21)OCO3 [oxolinic-acid],> 10 µM,> 10 µM,> 10 µM,> 10 µM,> 10 µM,101%,101%,96.2%,103%,97%,98.5%,109%,109%,93.6%,95%,97%,108%,113%,108%,94.1%,89.1%,99.9%,94.2%,106%,93.2%,109%,98.9%,85.3%,102%,78.4%,0,0,0,0,0.6
O=C(O)/C=C/c1ccc(Cn2ccnc2)cc1 [ozagrel],> 10 µM,> 10 µM,> 10 µM,> 10 µM,> 10 µM,97.8%,100%,95.1%,99.7%,93.2%,97.5%,103%,95.2%,101%,101%,95%,91.9%,101%,95.7%,100%,98%,100%,99.7%,106%,92.3%,92.4%,101%,96.7%,98.6%,94.9%,0,0,0,0,0
C1=N/C2=N/c3ccc(OCCN4CCCC4)c(c3)COC/C=C/COCc3cccc(c3)C(=C1)N2 [pacritinib],2.3 µM,2.71 µM,2.51 µM,3.34 µM,1.9 µM,90.3%,91.6%,101%,89.7%,1.5%,96.3%,94.9%,94.7%,94.7%,7.2%,94.2%,102%,89.4%,92.1%,0.8%,104%,96.5%,95.6%,102%,27.8%,88.9%,95.2%,94.6%,87.7%,26%,7.1,5.9,6.7,3.8,6.1
Cc1[nH]c2ccccc2c1CCNCc1ccc(/C=C/C(=O)NO)cc1 [panobinostat],0.127 µM,0.142 µM,0.052 µM,0.175 µM,0.136 µM,99.2%,97%,62.4%,1.4%,0.8%,101%,97.8%,70.8%,-0.4%,-0.5%,104%,80.6%,36.8%,-0.3%,-0.4%,113%,113%,67.8%,17.5%,6%,99.8%,110%,68.4%,1%,1.1%,22.6,22.3,26.6,19.4,22.3
C[N+]1(CCCCC[N+]2(C)CCCC2)CCCC1 [pentolinium],> 10 µM,> 10 µM,> 10 µM,> 10 µM,> 10 µM,94.2%,98.7%,100%,99.2%,102%,96.3%,105%,102%,101%,108%,79.4%,99.3%,96%,112%,97.6%,97.1%,91.2%,110%,94%,88.1%,99%,109%,124%,107%,88.7%,0,0,0,0.3,0
CC(=O)O[C@H]1C[C@@H]2CC[C@@H]3[C@H](CC[C@@]4(C)[C@H]3C[C@H](N3CC[N+](C)(C)CC3)[C@@H]4OC(C)=O)[C@@]2(C)C[C@@H]1N1CC[N+](C)(C)CC1 [pipecuronium],> 10 µM,> 10 µM,> 10 µM,> 10 µM,> 10 µM,101%,104%,97.7%,105%,96.9%,100%,94.7%,92.5%,95.5%,99.2%,97.8%,94.2%,97.4%,96.8%,92.3%,87.8%,102%,90.2%,111%,96.7%,93.7%,103%,91.2%,96.7%,97%,0,0,0,0,0
C#CCC(Cc1cnc2nc(N)nc(N)c2n1)c1ccc(C(=O)N[C@@H](CCC(=O)O)C(=O)O)cc1 (stereo not given in full) [pralatrexate],> 10 µM,0.0036 µM,0.0038 µM,> 10 µM,0.0164 µM,105%,76.8%,97.2%,90%,98.6%,98.9%,19.2%,14.4%,16.7%,14.2%,99.2%,22.9%,21.3%,17.8%,17.1%,107%,102%,91.4%,88.2%,93.6%,97%,81.8%,55.3%,49.6%,56.2%,0,36.7,35.4,0.8,16.7
C[C@]12C=CC(=O)C=C1CC[C@@H]1[C@@H]2[C@@H](O)C[C@@]2(C)[C@H]1CC[C@]2(O)C(=O)COP(=O)(O)O [prednisolone-sodium-phosphate],> 10 µM,> 10 µM,> 10 µM,> 10 µM,> 10 µM,95.1%,105%,97.9%,90.8%,97%,102%,103%,108%,101%,89.6%,100%,100%,104%,99.2%,100%,97.4%,92.7%,101%,82.5%,106%,99.6%,89.5%,98.4%,92.8%,91.7%,0,0,0,0,0
COCCOc1ccc(N2CCN(CCn3ncc4c3nc(N)n3nc(-c5ccco5)nc43)CC2)cc1 [preladenant],> 10 µM,> 10 µM,> 10 µM,> 10 µM,> 10 µM,97.6%,101%,95.3%,95.1%,96.9%,91.2%,99.5%,97.7%,102%,99.6%,97%,105%,94%,99.6%,93.2%,106%,112%,97.2%,92.3%,107%,98.1%,99%,98.1%,91.8%,93.1%,0,0,0,0,0
CC[N+](C)(CC)CCC[n+]1c(-c2ccccc2)c2cc(N)ccc2c2ccc(N)cc21 [propidium-iodide],> 10 µM,> 10 µM,> 10 µM,> 10 µM,> 10 µM,99.2%,103%,98.4%,99.8%,83.7%,96.8%,99.5%,98.3%,96%,95.7%,93.8%,104%,90.8%,90.4%,80.1%,100%,99.6%,102%,104%,92.3%,91.3%,99.2%,93.1%,95.3%,75.7%,0.3,0,1.2,0,1.5
NC(=O)c1cnccn1 [pyrazinamide],> 10 µM,> 10 µM,> 10 µM,> 10 µM,> 10 µM,93.7%,101%,98%,104%,96%,105%,93.5%,106%,95.3%,104%,103%,103%,105%,97.9%,103%,99.5%,100%,94.2%,104%,93%,104%,120%,92.8%,107%,89.8%,0,0,0,0,0
O=C(O)c1cccnc1C(=O)O [quinolinic-acid],> 10 µM,> 10 µM,> 10 µM,> 10 µM,> 10 µM,98.2%,103%,98.6%,102%,97.7%,108%,97.4%,108%,99.2%,102%,105%,99.5%,97.6%,102%,97.8%,91.5%,105%,97.1%,100%,101%,103%,110%,96.8%,103%,90.3%,0,0,0,0,0
COC(=O)[C@H]1[C@H]2C[C@@H]3c4[nH]c5cc(OC)ccc5c4CCN3C[C@H]2C[C@@H](OC(=O)c2cc(OC)c(OC)c(OC)c2)[C@@H]1OC [reserpine],> 10 µM,> 10 µM,> 10 µM,> 10 µM,> 10 µM,98%,97.7%,95.8%,94.8%,99.2%,112%,95.2%,96.6%,104%,97.1%,106%,93.5%,81.3%,96%,96.6%,107%,92.5%,109%,102%,111%,110%,90.1%,96.4%,91.9%,101%,0,0,0,0,0
